# Measured values: patent US20250275966A1, “GABAA RECEPTOR MODULATOR SALTS, PARTICLES, AND USES THEREOF” (Engrail Therapeutics, Inc., priority 2022, published 2025)
# Structures can show the parent of a compound that is named as a salt.
# What was measured:
# [1] = assay type: physicochemical
# Experimental: A hemi-fumarate Form A (acetonitrile solvate) and hemi-fumarate Form B (non-solvated) of 3-(2,5-difluorophenyl)-7-[1,1-di(methyl-d3)ethyl-2,2,2-d3]-6-[(1-methyl-1H-1,2,4-triazol-5-yl)methoxy]-1,2,4-triazolo[4,3-b]pyridazine were prepared. A seed crystal for Form B was prepared by first combining 20.3 mg ([…]) 3-(2,5-difluorophenyl)-7-[1,1-di(methyl-d3)ethyl-2,2,2-d3]-6-[(1-methyl-1H-1,2,4-triazol-5-yl)methoxy]-1,2,4-triazolo[4,3-b]pyridazine with 1000 μL acetone. Fumaric acid/EtOH was added ([…], 1.0 eq) and the sample was continuously stirred while cycling the temperature between 40° C. and 5° C. (heating and cooling at 2° C./min. with 1 hour hold at 40° C. and 5° C.) for 48 hours. The samples were isolated at 5° C. and the suspension was equilibrated with stirring at 20° C. for 2 hours. Birefringent solids were harvested by filtration at room temperature and air-dried overnight. 3-(2,5-difluorophenyl)-7-[1,1-di(methyl-d3)ethyl-2,2,2-d3]-6-[(1-methyl-1H-1,2,4-triazol-5-yl)methoxy]-1,2,4-triazolo[4,3-b]pyridazine (5.51 mmol) was combined with acetone ([…], 16 vol). To the resulting solution (with minimal residual solids), fumaric acid (575 mg, 1.0 eq) was added, followed by seeding, e.g., with Form B (˜10 mg). […]
# [2] = Gravimetric vapor sorption (GVS); assay type: physicochemical
# Experimental: Selected physicochemical data of Form B were collected. Hemi-fumarate salt Form B was determined to be crystalline by polarized-light microscopy (PLM) and XRPD. […] (ΔH=1.7 J/g), followed immediately by a sharp endotherm at 199.6° C. […] (see FIG. 7). Proton NMR confirmed a hemi-salt with 0.5:1 CI:API ratio. […] No change in the XRPD pattern was observed post GVS.
# GVS experiments were conducted on a Surface Measurement Systems DVS-Advantage. The experiments were performed at 25° C. The instrument was operated in step mode and the relative humidity was increased in 10% RH increments from 40% RH to 75% RH, then decreased from 75% RH to 5% RH, then increased a second time from 5% RH to 95% RH, then decreased from 95% RH to 5% RH. The mass equilibrium criterion was set at 0.003% change in mass over time (dm/dt). A minimum step time of 20 minutes and a maximum step time of 240 minutes were specified.
# [3] = Solid-state stability by HPLC and XRPD; assay type: physicochemical; conditions: 40° C./75% RH (opened) and 50° C./ambient RH (closed), after 4 weeks
# Experimental: Solid-state stability of the fumarate salt of Compound 1 was assessed after storage at the following conditions for 2 and 4 weeks by HPLC and XRPD: 40° C./75% RH (opened); and 50° C./ambient RH (closed). […] Solid-state stability of Compound 1 and seven salts of Compound 1, as in Example 8, was assessed after storage at the following conditions for 2 and 4 weeks by HPLC and PXRD: 40° C./75% RH (opened); and 50° C./ambient RH (closed). HPLC for IDR and solid-state stability analyses were conducted with an Agilent 1260 Infinity system equipped with a G1311B Quad pump, […] Autosampler, G1330B auto-sampler thermostat, G1316A Thermostatted Column Compartment with a column switch valve, and […] diode array detector.
# [4] = Intrinsic dissolution rate and solubility in 0.1 N HCl with 1% Tween 80 (USP <1087>); assay type: physicochemical; conditions: 0.1 N HCl with 1% Tween 80, 37° C.; for Intrinsic Dissolution Rate IDR: paddle 100 rpm, die surface 0.5 cm^2
# Experimental: The intrinsic dissolution rate was determined by forming compacted pellets of approximately 75 mg of API using a compression force of 1200 pounds of force, and each pellet (die surface area: 0.5 cm^2) was immersed into a flat bottom vessel containing 500 mL of medium (aqueous 0.1 N HCl with 1% Tween 80 (polyoxyethylene (20) sorbitan monooleate)), using a Distek 2100A dissolution bath, and Distek Circulator/heater (set to 37° C.), with a paddle speed of 100 rpm. An aliquot of the sample (1 mL) was pulled from dissolution media at 15, 30, 45, 60, 75, 90, 105, and 120 minutes, filtered, and analyzed by HPLC. The slope of the dissolution profile corresponded to an intrinsic dissolution rate of hemi-fumarate salt Form B of 6.2 μg/(min·cm^2) as compared to 8.9 μg/(min·cm^2) for Compound 1 (free base). Determination of intrinsic dissolution rate (IDR) was performed for Compound 1 and seven different salts of Compound 1 according to USP <1087> in 0.1 N hydrochloric acid with 1% Tween 80 (Polyoxyethylene […] sorbitan monooleate). Compacted pellets containing approximately 75 mg API were prepared using a compression force of 1200 pounds of force, and each pellet (die surface area: 0.5 cm^2) was immersed into a flat bottom vessel containing 500 mL of medium, using a Distek 2100A dissolution bath, and Distek Circulator/heater (set to 37° C.), with a paddle speed of 100 rpm. An aliquot of the sample (1 mL) was pulled from dissolution media at 15, 30, 45, 60, 75, 90, 105, and 120 minutes, filtered, and analyzed by HPLC. HPLC for IDR and solid-state stability analyses were conducted with an Agilent 1260 Infinity system equipped with a G1311B Quad pump, […] Autosampler, G1330B auto-sampler thermostat, G1316A Thermostatted Column Compartment with a column switch valve, and […] diode array detector.
# [5] = Oral non-human primate crossover PK study (Example 7); assay type: in vivo, cynomolgus monkeys; conditions: both micronized and non-micronized form; cynomolgus monkeys, single PO capsule
# Description: An objective of this study is to determine the Pharmacokinetic (PK) profile of the Test Article following a single oral administration to four male non-human primate cynomolgus monkeys with one (1) week wash out periods.
# Four male animals are used for this study, and the four study animals are used for each of three dosing phases with one-week washout periods. Food is withheld overnight prior to dose administration, and food is returned four hours post-dose administration. Water is provided ad libitum by automatic watering device. Two of the four animals are previously treated with Compound 1, and the other two are Compound 1 naive. Test Article (M-3, N-3, or K-13) are provided as capsulized powders; stored at room temperature protected from light in, for example, a polyolefin bottle.
# [6] = Pharmacokinetic analysis of Compound 1 and its salts after oral capsule administration (Example 4); assay type: in vivo, cynomolgus monkeys; conditions: single PO capsule, 30 mg/kg
# Experimental: A pharmacokinetic analysis was performed comparing administration of Compound 1 with certain salts of Compound 1 after oral (PO) administration in 3 male cynomolgus monkeys. The subjects received a single PO oral gavage of active pharmaceutical ingredient (API) (e.g., Compound 1 fumarate, Compound 1 sulfate, Compound 1 hydrochloride, Compound 1 phosphate, Compound 1 tosylate, Compound 1 malonate, Compound 1 maleate, or Compound 1 free base) in a capsule at a dose of 30 mg/kg. Following dose administration, the animals were flushed with approximately 10 milliliters of tap water to ensure all API was administered. Animals were observed twice daily and at sample collection time-points for any abnormal clinical and behavioral signs. Body weights were taken prior to dosing and weekly thereafter until study termination. Blood samples (0.5 mL) were collected pre-dose, 15 minutes, 30 minutes, and 1, 2, 4, 6, 8, 10, 12, and 24 hours post-dose. Each blood sample was collected from the monkey's femoral, saphenous or other available vein via direct venipuncture, placed into a polypropylene tube containing K2EDTA as the anticoagulant, and gently inverted several times to mix. The blood samples were kept on wet ice until centrifugation. Blood was centrifuged within 10 minutes of collection. The samples were centrifuged at a temperature of 4° C., at 3,000 g, for 5 minutes. The resulting plasma (˜0.25 mL) was divided into two equal aliquots (125 μL each) into polypropylene tubes, designated as Set A and Set B, after centrifugation. Plasma samples designated for certain metabolites (Set A) were treated with 12.5 μL of 2 M ascorbic acid (plasma: ascorbic acid=[…], v:v) prepared beforehand by combining 0.352 g of ascorbic acid into 1 mL of sterile water in a glass vial and mixing thoroughly. […] Once plasma was prepared, the samples were snap frozen on dry ice. All plasma samples were stored frozen below −70° C. until analyzed.
# [7] = 3 male cynomolgus monkeys, plasma Compound 1
smiles,measurement,setting,value
"[2H]C([2H])([2H])C(c1cc2nnc(-c3cc(F)ccc3F)n2nc1OCc1ncnn1C)(C([2H])([2H])[2H])C([2H])([2H])[2H] [Form A, 3-(2,5-difluorophenyl)-7-[1,1-di(methyl-d3)ethyl-2,2,2-d3]-6-[(1-methyl-1H-1,2,4-triazol-5-yl)methoxy]-1,2,4-triazolo[4,3-b]pyridazine]",solid form stability at ambient conditions,[1],converted to Form B
"[2H]C([2H])([2H])C(c1cc2nnc(-c3cc(F)ccc3F)n2nc1OCc1ncnn1C)(C([2H])([2H])[2H])C([2H])([2H])[2H] [Fumarate Salt, 3-(2,5-difluorophenyl)-7-[1,1-di(methyl-d3)ethyl-2,2,2-d3]-6-[(1-methyl-1H-1,2,4-triazol-5-yl)methoxy]-1,2,4-triazolo[4,3-b]pyridazine]",XRPD pattern post GVS,[2]; after GVS,No change
same,moisture uptake (GVS),"[2]; between 5-95% RH, 25° C.",< 0.1 % wt
same,Solid-state stability by HPLC or XRPD,[3],No significant changes
same,"Solubility, time point 15 min","[4]; 500 mL, pellet about 75 mg, 15 min",0.342 µg/mL
same,"Solubility, time point 30 min","[4]; 500 mL, pellet about 75 mg, 30 min",0.404 µg/mL
same,"Solubility, time point 45 min","[4]; 500 mL, pellet about 75 mg, 45 min",0.46 µg/mL
same,"Solubility, time point 60 min","[4]; 500 mL, pellet about 75 mg, 60 min",0.576 µg/mL
same,"Solubility, time point 75 min","[4]; 500 mL, pellet about 75 mg, 75 min",0.684 µg/mL
same,"Solubility, time point 90 min","[4]; 500 mL, pellet about 75 mg, 90 min",0.79 µg/mL
same,"Solubility, time point 105 min","[4]; 500 mL, pellet about 75 mg, 105 min",0.87 µg/mL
same,"Solubility, time point 120 min","[4]; 500 mL, pellet about 75 mg, 120 min",0.993 µg/mL
same,Intrinsic Dissolution Rate IDR,[4],6.2 μg/(min · cm^2)
same,Intrinsic Dissolution Rate IDR,[4]; listed as hemi-fumarate salt Form B,6.2 μg/(min · cm^2)
same,"Solubility, Cumulative",[4]; sum of the 15-120 min time points,5.119 µg/mL
same,exposure to Compound 1 as compared to subjects dosed with the free base,[5],superior exposure
same,Cmax,[6]; [7],3080 ng/mL
same,Tmax,[6]; [7],4.7 h
same,Cmax,"[6]; 3 male cynomolgus monkeys, plasma Compound 1, listed as fumarate salt of Compound 1, 30 mg/kg",about 3080 ng/mL
same,AUClast higher than that of Compound 1,[6]; male cynomolgus monkeys,over 50%
same,Cmax higher than that of Compound 1 (free base),[6]; male cynomolgus monkeys,over 98%
same,AUC(0-t),"[6]; male, cynomolgus monkey, plasma, po, male cynomolgus monkeys",38900 ng·h/mL
